These results are taken from patent publication US20180214583A1, “PHARMACEUTICAL COMBINATION FOR THE TREATMENT OF CANCER” (BAYER PHARMA AKTIENGESELLSCHAFT, priority 2015, published 2018).

The conditions of series [1]: single dose 250 kBq per kg body weight; cited from earlier work.
Series [2] relates to bone metastatic prostate tumors. Description: Radium-223 with anti-PD-L1 immunotherapy in bone metastatic prostate cancer mice models. The format is in vivo. How it is done: PD-L1 expression after Ra-223 treatment, and blocking PD-L1 combined with Ra-223 as a treatment for bone metastatic prostate cancer is examined in bone metastatic prostate cancer mice models.
The safety and efficacy of Ra-223 combined with anti-PD-L1 antibody versus Ra-223 or […] alone and radiation therapy as controls are tested. A genetically engineered mouse model (Pten/Smad4-null FVB mice, Ding et al., Nature 2011) is used. Treatments are initiated in mice with established tumors. The goal here is to evaluate treatment efficacy. At the experimental endpoint, tumor volume, metastatic burden (lung and liver) and mouse survival is measured.

The subject of series [3] is diffuse large B-cell lymphoma (DLBCL). The following applies: cited from earlier work.

As to `[Cl][223Ra][Cl]` [radium-223, radium-223 dichloride], in series [1], the “cases of grade 3 neutropenia” value is 1/5; the observed adverse reactions entry is “diarrhea and reversible myelosuppression”. Also, the “PD-L1 expression after treatment” value in series [2] is “upregulates PD-L1 expression”.
As for “CT-011: humanized IgG 1 monoclonal antibody against PD-1”, the “subjects progression-free at the end of the follow-up period” value in series [3] (DLBCL subjects after autologous stem cell transplantation, preliminary results, control group 47%) is reported as 70%. In series [3] (DLBCL subjects after autologous stem cell transplantation, preliminary results, control group 62%), the subjects alive is on record as 82%. Further, the “effect on natural killer cells” value in series [3] (phase II trial) is “augments the activity of natural killer cells”.
